According to ChEMBL document CHEMBL3414527, “Engineering potent and selective analogues of GpTx-1, a tarantula venom peptide antagonist of the Na(V)1.7 sodium channel” (J Med Chem, 2015):
Bridge positions count the residues as written; N and C are the ends. Peptide text beside a SMILES is read from it.

Target: Sodium channel protein type 5 subunit alpha (Homo sapiens, UniProt Q14524)
Experiment: Inhibition of human NaV1.5 at -140 mV holding potential by whole-cell patch clamp assay

Chain of Sodium channel protein type 5 subunit alpha (Q14524 whole entry): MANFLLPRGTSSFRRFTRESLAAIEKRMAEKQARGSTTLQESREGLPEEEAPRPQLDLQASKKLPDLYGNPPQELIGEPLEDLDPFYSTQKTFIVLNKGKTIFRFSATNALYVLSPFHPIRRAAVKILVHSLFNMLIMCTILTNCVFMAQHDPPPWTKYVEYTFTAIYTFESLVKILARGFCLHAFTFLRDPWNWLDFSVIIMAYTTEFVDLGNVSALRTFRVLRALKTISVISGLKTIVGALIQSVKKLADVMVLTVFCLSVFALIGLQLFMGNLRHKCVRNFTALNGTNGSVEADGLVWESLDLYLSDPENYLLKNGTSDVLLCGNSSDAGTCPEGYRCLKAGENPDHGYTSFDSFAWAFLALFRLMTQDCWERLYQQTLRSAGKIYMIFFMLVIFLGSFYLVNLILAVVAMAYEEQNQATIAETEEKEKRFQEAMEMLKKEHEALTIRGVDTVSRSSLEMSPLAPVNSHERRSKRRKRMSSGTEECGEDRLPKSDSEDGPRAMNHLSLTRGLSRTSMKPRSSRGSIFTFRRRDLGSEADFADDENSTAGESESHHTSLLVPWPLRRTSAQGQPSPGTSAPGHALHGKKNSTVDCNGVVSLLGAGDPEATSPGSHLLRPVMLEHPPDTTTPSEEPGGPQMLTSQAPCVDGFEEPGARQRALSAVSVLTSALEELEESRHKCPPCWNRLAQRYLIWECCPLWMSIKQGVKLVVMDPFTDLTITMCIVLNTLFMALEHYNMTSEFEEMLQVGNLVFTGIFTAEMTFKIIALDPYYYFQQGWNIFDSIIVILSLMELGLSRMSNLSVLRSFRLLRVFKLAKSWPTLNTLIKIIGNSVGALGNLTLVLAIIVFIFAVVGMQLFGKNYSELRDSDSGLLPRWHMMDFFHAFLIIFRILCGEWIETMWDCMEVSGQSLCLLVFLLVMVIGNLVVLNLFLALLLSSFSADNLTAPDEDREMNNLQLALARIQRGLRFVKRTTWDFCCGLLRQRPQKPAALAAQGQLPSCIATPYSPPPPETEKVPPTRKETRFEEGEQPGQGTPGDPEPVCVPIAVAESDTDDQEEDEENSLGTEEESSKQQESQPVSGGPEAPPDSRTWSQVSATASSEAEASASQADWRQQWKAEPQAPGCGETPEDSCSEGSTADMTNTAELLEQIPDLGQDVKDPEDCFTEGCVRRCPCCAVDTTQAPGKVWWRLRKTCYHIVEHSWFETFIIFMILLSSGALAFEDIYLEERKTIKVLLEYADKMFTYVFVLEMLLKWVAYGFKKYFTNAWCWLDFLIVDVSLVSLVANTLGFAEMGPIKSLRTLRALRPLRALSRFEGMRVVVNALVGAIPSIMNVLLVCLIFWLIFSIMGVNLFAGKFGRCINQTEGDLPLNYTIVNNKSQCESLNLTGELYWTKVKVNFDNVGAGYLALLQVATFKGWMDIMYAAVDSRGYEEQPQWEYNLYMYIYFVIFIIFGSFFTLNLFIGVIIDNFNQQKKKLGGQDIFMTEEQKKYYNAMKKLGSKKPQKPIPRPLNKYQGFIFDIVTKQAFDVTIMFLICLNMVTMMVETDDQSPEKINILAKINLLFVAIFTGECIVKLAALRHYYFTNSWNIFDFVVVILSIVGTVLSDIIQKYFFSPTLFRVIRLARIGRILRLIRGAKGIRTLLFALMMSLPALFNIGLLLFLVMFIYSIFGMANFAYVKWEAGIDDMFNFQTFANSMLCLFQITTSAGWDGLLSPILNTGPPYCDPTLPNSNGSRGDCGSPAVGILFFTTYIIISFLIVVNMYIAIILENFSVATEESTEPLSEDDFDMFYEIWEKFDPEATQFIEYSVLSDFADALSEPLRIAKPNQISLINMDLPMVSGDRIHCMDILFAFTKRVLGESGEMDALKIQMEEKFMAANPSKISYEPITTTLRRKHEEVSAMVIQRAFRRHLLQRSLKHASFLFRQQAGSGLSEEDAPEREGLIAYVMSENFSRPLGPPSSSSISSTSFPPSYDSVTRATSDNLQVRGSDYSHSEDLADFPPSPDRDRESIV

Structure (SMILES)	IC50
CC[C@H](C)[C@@H]1NC(=O)[C@@H]2CSSC[C@@H]3NC(=O)[C@H](C(C)C)NC(=O)[C@H](CC(C)C)NC(=O)[C@H](CC(N)=O)NC(=O)[C@@H]4CCCN4C(=O)[C@H](CCCNC(=N)N)NC(=O)[C@H](CSSC[C@H](NC(=O)[C@@H](N)CC(=O)O)C(=O)N[C@@H](CC(C)C)C(=O)NCC(=O)N[C@@H](C)C(=O)N[C@@H](Cc4ccccc4)C(=O)N[C@@H](CCCNC(=N)N)C(=O)N[C@@H](CCCCN)C(=O)N2)NC(=O)[C@H](CSSC[C@@H](C(=O)N[C@@H](CCCCN)C(=O)N[C@@H](Cc2ccc(O)cc2)C(=O)N[C@H](C(=O)N[C@@H](Cc2ccccc2)C(N)=O)C(C)C)NC(=O)[C@H](Cc2c[nH]c4ccccc24)NC(=O)[C@H](CCCCN)NC(=O)[C@H](Cc2cnc[nH]2)NC(=O)[C@H](CC(C)C)NC(=O)[C@H](CCCNC(=N)N)NC(=O)[C@H](CO)NC3=O)NC(=O)[C@H](CCCCN)NC(=O)[C@H](CC(=O)O)NC(=O)[C@H](CC(N)=O)NC(=O)[C@H](CC(=O)O)NC(=O)[C@@H]2CCCN2C1=O (H-DCLGAFRKCIPDNDKCCRPNLVCSRLHKWCKYVF-NH2; disulfide 2-17, 9-23, 16-30)	> 10 µM
CC[C@H](C)[C@@H]1NC(=O)[C@@H]2CSSC[C@@H]3NC(=O)[C@H](C(C)C)NC(=O)[C@H](CC(C)C)NC(=O)[C@H](C)NC(=O)[C@@H]4CCCN4C(=O)[C@H](CCCNC(=N)N)NC(=O)[C@H](CSSC[C@H](NC(=O)[C@@H](N)CC(=O)O)C(=O)N[C@@H](CC(C)C)C(=O)NCC(=O)N[C@@H](Cc4ccccc4)C(=O)N[C@@H](CCSC)C(=O)N[C@@H](CCCNC(=N)N)C(=O)N[C@@H](CCCCN)C(=O)N2)NC(=O)[C@H](CSSC[C@@H](C(=O)N[C@@H](CCCCN)C(=O)N[C@@H](Cc2ccc(O)cc2)C(=O)N[C@H](C(=O)N[C@@H](Cc2ccccc2)C(N)=O)C(C)C)NC(=O)[C@H](Cc2c[nH]c4ccccc24)NC(=O)[C@H](CCCCN)NC(=O)[C@H](Cc2cnc[nH]2)NC(=O)[C@H]([C@@H](C)O)NC(=O)[C@H](CCCNC(=N)N)NC(=O)[C@H](CO)NC3=O)NC(=O)[C@H](CCCCN)NC(=O)[C@H](CC(=O)O)NC(=O)[C@H](CC(N)=O)NC(=O)[C@H](CC(=O)O)NC(=O)[C@@H]2CCCN2C1=O (H-DCLGFMRKCIPDNDKCCRPALVCSRTHKWCKYVF-NH2; disulfide 2-17, 9-23, 16-30)	> 5 µM
CC[C@H](C)[C@@H]1NC(=O)[C@@H]2CSSC[C@@H]3NC(=O)[C@H](C(C)C)NC(=O)[C@H](CC(C)C)NC(=O)[C@H](CC(N)=O)NC(=O)[C@@H]4CCCN4C(=O)[C@H](CCCNC(=N)N)NC(=O)[C@H](CSSC[C@H](NC(=O)[C@H](C)N)C(=O)N[C@@H](CC(C)C)C(=O)NCC(=O)N[C@@H](Cc4ccccc4)C(=O)N[C@@H](CCSC)C(=O)N[C@@H](CCCNC(=N)N)C(=O)N[C@@H](CCCCN)C(=O)N2)NC(=O)[C@H](CSSC[C@@H](C(=O)N[C@@H](CCCCN)C(=O)N[C@@H](Cc2ccc(O)cc2)C(=O)N[C@H](C(=O)N[C@@H](Cc2ccccc2)C(N)=O)C(C)C)NC(=O)[C@H](Cc2c[nH]c4ccccc24)NC(=O)[C@H](CCCCN)NC(=O)[C@H](Cc2cnc[nH]2)NC(=O)[C@H]([C@@H](C)O)NC(=O)[C@H](CCCNC(=N)N)NC(=O)[C@H](CO)NC3=O)NC(=O)[C@H](CCCCN)NC(=O)[C@H](CC(=O)O)NC(=O)[C@H](CC(N)=O)NC(=O)[C@H](CC(=O)O)NC(=O)[C@@H]2CCCN2C1=O (H-ACLGFMRKCIPDNDKCCRPNLVCSRTHKWCKYVF-NH2; disulfide 2-17, 9-23, 16-30)	> 5 µM
CC[C@H](C)[C@@H]1NC(=O)[C@@H]2CSSC[C@@H]3NC(=O)[C@H](C(C)C)NC(=O)[C@H](CC(C)C)NC(=O)[C@H](CC(N)=O)NC(=O)[C@@H]4CCCN4C(=O)[C@H](CCCNC(=N)N)NC(=O)[C@H](CSSC[C@H](NC(=O)[C@@H](N)CC(=O)O)C(=O)N[C@@H](CC(C)C)C(=O)NCC(=O)N[C@@H](Cc4ccccc4)C(=O)N[C@@H](CCSC)C(=O)N[C@@H](CCCNC(=N)N)C(=O)N[C@@H](CCCCN)C(=O)N2)NC(=O)[C@H](CSSC[C@@H](C(=O)N[C@@H](CCCCN)C(=O)N[C@@H](C)C(=O)N[C@H](C(=O)N[C@@H](Cc2ccccc2)C(N)=O)C(C)C)NC(=O)[C@H](Cc2c[nH]c4ccccc24)NC(=O)[C@H](CCCCN)NC(=O)[C@H](Cc2cnc[nH]2)NC(=O)[C@H]([C@@H](C)O)NC(=O)[C@H](CCCNC(=N)N)NC(=O)[C@H](CO)NC3=O)NC(=O)[C@H](CCCCN)NC(=O)[C@H](CC(=O)O)NC(=O)[C@H](CC(N)=O)NC(=O)[C@H](CC(=O)O)NC(=O)[C@@H]2CCCN2C1=O (H-DCLGFMRKCIPDNDKCCRPNLVCSRTHKWCKAVF-NH2; disulfide 2-17, 9-23, 16-30)	> 5 µM
CC[C@H](C)[C@@H]1NC(=O)[C@@H]2CSSC[C@@H]3NC(=O)[C@H](C(C)C)NC(=O)[C@H](CC(C)C)NC(=O)[C@H](CC(N)=O)NC(=O)[C@@H]4CCCN4C(=O)[C@H](CCCNC(=N)N)NC(=O)[C@H](CSSC[C@H](NC(=O)[C@@H](N)CC(=O)O)C(=O)N[C@@H](CC(C)C)C(=O)NCC(=O)N[C@@H](Cc4ccccc4)C(=O)N[C@@H](CCSC)C(=O)N[C@@H](C)C(=O)N[C@@H](CCCCN)C(=O)N2)NC(=O)[C@H](CSSC[C@@H](C(=O)N[C@@H](CCCCN)C(=O)N[C@@H](Cc2ccc(O)cc2)C(=O)N[C@H](C(=O)N[C@@H](Cc2ccccc2)C(N)=O)C(C)C)NC(=O)[C@H](Cc2c[nH]c4ccccc24)NC(=O)[C@H](CCCCN)NC(=O)[C@H](Cc2cnc[nH]2)NC(=O)[C@H]([C@@H](C)O)NC(=O)[C@H](CCCNC(=N)N)NC(=O)[C@H](CO)NC3=O)NC(=O)[C@H](CCCCN)NC(=O)[C@H](CC(=O)O)NC(=O)[C@H](CC(N)=O)NC(=O)[C@H](CC(=O)O)NC(=O)[C@@H]2CCCN2C1=O (H-DCLGFMAKCIPDNDKCCRPNLVCSRTHKWCKYVF-NH2; disulfide 2-17, 9-23, 16-30)	> 5 µM
CC[C@H](C)[C@@H]1NC(=O)[C@@H]2CSSC[C@@H]3NC(=O)[C@H](C(C)C)NC(=O)[C@H](CC(C)C)NC(=O)[C@H](CC(N)=O)NC(=O)[C@@H]4CCCN4C(=O)[C@H](CCCNC(=N)N)NC(=O)[C@H](CSSC[C@H](NC(=O)[C@@H](N)CC(=O)O)C(=O)N[C@@H](CC(C)C)C(=O)N[C@@H](C)C(=O)N[C@@H](Cc4ccccc4)C(=O)N[C@@H](CCSC)C(=O)N[C@@H](CCCNC(=N)N)C(=O)N[C@@H](CCCCN)C(=O)N2)NC(=O)[C@H](CSSC[C@@H](C(=O)N[C@@H](CCCCN)C(=O)N[C@@H](Cc2ccc(O)cc2)C(=O)N[C@H](C(=O)N[C@@H](Cc2ccccc2)C(N)=O)C(C)C)NC(=O)[C@H](Cc2c[nH]c4ccccc24)NC(=O)[C@H](CCCCN)NC(=O)[C@H](Cc2cnc[nH]2)NC(=O)[C@H]([C@@H](C)O)NC(=O)[C@H](CCCNC(=N)N)NC(=O)[C@H](CO)NC3=O)NC(=O)[C@H](CCCCN)NC(=O)[C@H](CC(=O)O)NC(=O)[C@H](CC(N)=O)NC(=O)[C@H](CC(=O)O)NC(=O)[C@@H]2CCCN2C1=O (H-DCLAFMRKCIPDNDKCCRPNLVCSRTHKWCKYVF-NH2; disulfide 2-17, 9-23, 16-30)	> 5 µM
CC[C@H](C)[C@@H]1NC(=O)[C@@H]2CSSC[C@@H]3NC(=O)[C@H](C(C)C)NC(=O)[C@H](CC(C)C)NC(=O)[C@H](CC(N)=O)NC(=O)[C@@H]4CCCN4C(=O)[C@H](CCCNC(=N)N)NC(=O)[C@H](CSSC[C@H](NC(=O)[C@@H](N)CC(=O)O)C(=O)N[C@@H](CC(C)C)C(=O)NCC(=O)N[C@@H](Cc4ccccc4)C(=O)N[C@@H](CCSC)C(=O)N[C@@H](CCCNC(=N)N)C(=O)N[C@@H](CCCCN)C(=O)N2)NC(=O)[C@H](CSSC[C@@H](C(=O)N[C@@H](CCCCN)C(=O)N[C@@H](Cc2ccc(O)cc2)C(=O)N[C@H](C(=O)N[C@@H](Cc2ccccc2)C(=O)N[C@@H](C)C(N)=O)C(C)C)NC(=O)[C@H](Cc2c[nH]c4ccccc24)NC(=O)[C@H](CCCCN)NC(=O)[C@H](Cc2cnc[nH]2)NC(=O)[C@H]([C@@H](C)O)NC(=O)[C@H](CCCNC(=N)N)NC(=O)[C@H](CO)NC3=O)NC(=O)[C@H](CCCCN)NC(=O)[C@H](CC(=O)O)NC(=O)[C@H](CC(N)=O)NC(=O)[C@H](CC(=O)O)NC(=O)[C@@H]2CCCN2C1=O	> 5 µM
CC[C@H](C)[C@@H]1NC(=O)[C@@H]2CSSC[C@@H]3NC(=O)[C@H](C(C)C)NC(=O)[C@H](CC(C)C)NC(=O)[C@H](CC(N)=O)NC(=O)[C@@H]4CCCN4C(=O)[C@H](CCCNC(=N)N)NC(=O)[C@H](CSSC[C@H](NC(=O)[C@@H](N)CC(=O)O)C(=O)N[C@@H](CC(C)C)C(=O)NCC(=O)N[C@@H](Cc4ccccc4)C(=O)N[C@@H](CCSC)C(=O)N[C@@H](CCCNC(=N)N)C(=O)N[C@@H](CCCCN)C(=O)N2)NC(=O)[C@H](CSSC[C@@H](C(=O)N[C@@H](CCCCN)C(=O)N[C@@H](Cc2ccc(O)cc2)C(=O)N[C@H](C(=O)N[C@@H](Cc2ccccc2)C(N)=O)C(C)C)NC(=O)[C@H](Cc2c[nH]c4ccccc24)NC(=O)[C@H](CCCCN)NC(=O)[C@H](Cc2cnc[nH]2)NC(=O)[C@H]([C@@H](C)O)NC(=O)[C@H](CCCNC(=N)N)NC(=O)[C@H](CO)NC3=O)NC(=O)[C@H](CCCCN)NC(=O)[C@H](CC(=O)O)NC(=O)[C@H](CC(N)=O)NC(=O)[C@H](C)NC(=O)[C@@H]2CCCN2C1=O (H-DCLGFMRKCIPANDKCCRPNLVCSRTHKWCKYVF-NH2; disulfide 2-17, 9-23, 16-30)	> 5 µM
CC[C@H](C)[C@@H]1NC(=O)[C@@H]2CSSC[C@@H]3NC(=O)[C@H](C)NC(=O)[C@H](CC(C)C)NC(=O)[C@H](CC(N)=O)NC(=O)[C@@H]4CCCN4C(=O)[C@H](CCCNC(=N)N)NC(=O)[C@H](CSSC[C@H](NC(=O)[C@@H](N)CC(=O)O)C(=O)N[C@@H](CC(C)C)C(=O)NCC(=O)N[C@@H](Cc4ccccc4)C(=O)N[C@@H](CCSC)C(=O)N[C@@H](CCCNC(=N)N)C(=O)N[C@@H](CCCCN)C(=O)N2)NC(=O)[C@H](CSSC[C@@H](C(=O)N[C@@H](CCCCN)C(=O)N[C@@H](Cc2ccc(O)cc2)C(=O)N[C@H](C(=O)N[C@@H](Cc2ccccc2)C(N)=O)C(C)C)NC(=O)[C@H](Cc2c[nH]c4ccccc24)NC(=O)[C@H](CCCCN)NC(=O)[C@H](Cc2cnc[nH]2)NC(=O)[C@H]([C@@H](C)O)NC(=O)[C@H](CCCNC(=N)N)NC(=O)[C@H](CO)NC3=O)NC(=O)[C@H](CCCCN)NC(=O)[C@H](CC(=O)O)NC(=O)[C@H](CC(N)=O)NC(=O)[C@H](CC(=O)O)NC(=O)[C@@H]2CCCN2C1=O (H-DCLGFMRKCIPDNDKCCRPNLACSRTHKWCKYVF-NH2; disulfide 2-17, 9-23, 16-30)	> 5 µM
